The record followed here is patent US20090304714A1, “IKKi Inhibitor Therapies and Screening Methods, and Related IKKi Diagnostics” (The Regents of the University of Michigan, priority 2008, published 2009).

For data set [1], the system named is 3T3L1 adipocytes. Put plainly: Insulin-stimulated 2-deoxyglucose uptake in 3T3L1 adipocytes. It counts as cell-based, mouse. Details: inhibitory effects of LPS on insulin-stimulated glucose uptake / direct effect on insulin-stimulated or basal transport: dose or concentration left out as unconfirmed. On the procedure:
Cell culture and transfection. 3T3-L1 fibroblasts (American Type Culture Collection) were cultured and differentiated as described previously [Reed & Lane, Proc Natl Acad Sci USA. 1980 January; 77(1):285-9, herein incorporated by reference]. Cells were routinely used within 7 days upon completion of the differentiation process, with only cultures in which >95% of cells displaying adipocyte morphology being used. CHO-IR and COS-1 cells were maintained in Dulbecco modified Eagle medium (Gibco) containing 10% foetal bovine serum. CHO-IR and 3T3-L1 cells were routinely transfected with plasmids and siRNA by electroporation as described previously (Inoue, M., et al., (2006) Mol. Biol. Cell 17, 2303, Baumann, et al., (2000) Nature 407, 202, both of which are herein incorporated by reference). Cos-1 cells were transfected using FuGene6 (Roche Diagnostics) in accordance with the manufacturer's protocol.
Glucose uptake analysis. 3T3-L1 adipocytes grown in 12-well plates were subjected to a glucose uptake assay as described previously [Van den Berghe et al., Mol Cell Biol. 1994 April; 14(4):2372-7, herein incorporated by reference] using 0.075 uCi/well 2-deoxy-D-[^14C]glucose (GE Health). Samples were counted in an LS6500 Multi-Purpose Scintillation Counter (Beckman Coulter) using BCS Biodegradable Counting Scintillant (GE Health).

Data set [2] concerns the target human insulin receptor Ser^1035Ala mutant (UniProt P06213).

Consider `COc1cc2ncn(-c3cc(OCc4ccccc4S(C)(=O)=O)c(C#N)s3)c2cc1OC` [5-(5,6-Dimethoxy-1H-benzimidazol-1-yl)-3-[[2-(methylsulfonyl)phenyl]methoxy]-2-thiophenecarbonitrile], for which the “direct effect on insulin-stimulated or basal transport” value in data set [1] (3T3L1 adipocytes) is on record as “little direct effect”. Besides, in data set [1] (3T3L1 adipocytes treated with 50 nM inhibitor prior to LPS and insulin (FIG. 6b)), the “LPS decreases in insulin stimulated glucose uptake” value was “prevents”. Also, the “inhibitory effects of LPS on insulin-stimulated glucose uptake” value in data set [1] (3T3L1 adipocytes treated, then LPS, followed by insulin) is given as “prevented”.

Turning to “wild-type IKKi (ectopically expressed, Example 1)”, the “incorporation of radioactive phosphate into the receptor” value in data set [2] is on record as “the Ser^1035Ala substitution blocked the incorporation of radioactive phosphate relative to the wild-type receptor when co-expressed with IKKi”.
